One series deals with Hepg 2 cells. Kind of series: Slide in situ hybridization, DMSO plus one additional compound (Example 2), HYR probe. It is filed as cell-based, human. The note with it: for Fluorescent signal (Scale of 1 to 4): 10% (v/v) additional compound with 9% DMSO, slide rating x 0.5, water control = 2, average of four experiments. As for the experimental part:
(§1) Slide in situ Cell Preparation and Hybridization Protocol
(§2) 1) Cells were suspended in a fixative (3 vol ethanol plus 1 vol methanol) and transferred to glass slides by centrifugation using a Cytospin apparatus.
(§3) 2) The assay solution (consisting of the hybridization cocktail HC alone or mixed with a compound or compounds being tested as an enhancer) with the DNA probe (25 ul) was placed over the cells and covered with a coverslip.
(§4) 3) The slide was heated at 90° C. for 5 minutes for DNA denaturation, then incubated at 46° C. for 30 minutes for hybridization.
(§5) 4) Cells were washed once with the wash solution #1, which was equilibrated at 42° C. Then cells were washed ten times with wash solution #2, which was equilibrated at 42° C.
5) Mounting solution (50% glycerol (v/v) in 1×PBS plus the nuclear stain Hoechst, (#33258; 1 ug/ml) was placed on the cells and covered with a coverslip.
6) The hybridization signal was observed under an Olympus BH10 microscope with fluorescent capabilities using a rhodamine derivative filters (excitation wavelength of 567 nm, emission wavelength of 584 nm).
The inclusion of DMSO in an in situ assay solution increased the permeation of the nucleic acid probes into the cells and gave hybridization signal in over 95% of the cells. In this Example, we show the effect of adding, in addition to DMSO, 10 percent (v/v) of an additional compound to the assay solution. The additional compounds added were: squalane (an aliphatic alkane), dodecyl alcohol (an alcohol), beta-cyclodextrin (a sugar), isopropyl palmitate (a fatty acid ester), 1,2, propanediol (an alcohol), pyrrolidinone (a lactam) and hexamethyldisiloxane (an organic silane).
In this Example, the hybridization cocktail consisted of nine volumes of HC-DMSO plus one volume of an additional compound. In the control sample, one volume of water was added instead of one volume of additional compound. As a result, in all samples, the concentration of DMSO in the cocktail was 9 percent (v/v).
The Slide In Situ Cell Preparation and Hybridization protocol was followed. The cells used were Hepg 2 cells. The probe used was an HYR probe specific for human Y chromosome α-satellite DNA repeated sequences; at its 5' end, via an Aminolink linker molecule, the probe was linked to a Texas Red moiety. A signal intensity of 4 was assigned to the slide in which the assay solution was HC plus 10% DMSO (control slide) and all other slides were rated 1, 2, 3 or 4 in comparison to the control slide, depending on whether the intensity was 1, 2, 3, or 4 times that of the control slide, respectively.
The results are an average of four independent experiments.

A further series deals with Hela cells. Kind of series: Liquid in situ hybridization with flow cytometry, DMSO plus additional compound (Example 4), 28S RNA and NR probes. It is filed as cell-based. The note with it: for 28S RNA Probe, mean LFL1: FITC 28S RNA probe, water control 6.070, average of four experiments; for NR Probe, mean LFL1: FITC NR probe (non-specific binding and autofluorescence), water control 0.137. An excerpt:
(§6) A Coulter Profile II flow cytometer was used for flow cytometry. With FITC as the probe dye, the filter for LFL3 was a 635 nm long pass filter and the filter for LFL1 was a 540 bp filter; the excitation wavelength was 488 nm. PMT1 and PMT3 settings were adjusted as required. A typical useful setting when fluorescein is the dye moiety is to have a PMT1 setting of 1100, a PMT3 setting of 900, and color compensation (PMT1, PMT3) of 15 percent.
(§7) Liquid in Situ Cell Preparation and Hybridization Protocol
(§8) 1. Cells were fixed in solution F, then resuspended in 2x SSC.
(§9) 2. The cells were spun out of solution and resuspended in an assay solution (consisting of the hybridization cocktail HC alone or in combination with a compound or compounds being tested as an enhancer.)
(§10) 3. After 30 min. at 42° C., the cells were washed in wash solution #1 preheated to 42° C. by centrifuging them out of the assay solution.
(§11) 4. Cells were next washed in wash solution #2 preheated to 42° C.
(§12) 5. Cells were resuspended in a 1X PBS solution containing 0.002% trypan blue as a counterstain.
(§13) 6. Cells were run on a flow cytometer and a "Count vs. LFL1" histogram was generated. ("Count" refers to cell count.) This histogram was used as the basis for determining the mean LFL1.
The effect on probe signal intensity of adding, in addition to DMSO, additional compounds to the assay solution was determined in an in situ liquid hybridization assay. The data was analyzed by flow cytometry.
The Liquid In Situ Cell Preparation and Hybridization Protocol was followed. The cells used were Hela cells. The probes used were a 28S RNA probe (SEQ ID NO: 1) and an NR probe.
The 28S RNA probe (SEQ ID NO: 1) is a target-specific probe specific for ribosomal RNA fluorescence obtained with it represents the sum of fluorescence from target-bound probe, non-specifically bound probe and autofluorescence from cellular molecules. The NR probe (SEQ ID NO: 2) is specific for a plant nucleic acid sequence and, in the current Example, the fluorescence obtained with it represent the sum of fluorescence from non-specifically bound probe and autofluorescence.
(§14) In this experiment, the hybridization cocktail consisted of nine volumes of HC-DMSO plus one volume of additional compound. In the control sample, one volume of water replaced the one volume of additional compound. As a result, in all samples, the concentration of DMSO was 9 percent (v/v).
The ratio, 28S/NR, is the ratio of the mean LFL1 observed with the 28S RNA probe (SEQ ID NO: 1) to the mean LFL1 observed with the NR probe (SEQ ID NO: 2). The results in the "28S RNA probe" and "NR probe" columns give the mean LFL1 observed with the 28S RNA and NR probes, respectively (SEQ ID NO: 1 and SEQ ID NO: 2, respectively).
On the technique in general: Flow cytometry measures light scatter and fluorescence of single cells or particles in a stream.

The test system of another series is Amniotic cells. Put plainly: Slide in situ hybridization, effect of DMSO (Example 1), amniotic cells, Y probe. It is filed as cell-based, human. The note with it: assay solution HC + 10% DMSO.
Excerpt: (§15) The Y probe (also referred to as the HYR probe) was a collection of oligonucleotides specific for human Y chromosome α-satellite DNA repeated sequences; where the probe was to be detected under a fluorescent microscope, it was labeled at its 5' end, via an Aminolink linker molecule (aminohexyl, from Applied Biosystems, Inc.), to a Texas Red Moiety.
Amniotic cells were obtained by standard amniocentesis procedure.
as §1, §2, §3, §4, §5
(§16) 5) Mounting solution (50% glycerol (v/v) in 1×PBS plus the nuclear stain Hoechst, (#33258; 1 ug/ml) was placed on the cells and covered with a coverslip. […]

The subject of series [1] is WBC cells (white blood cells). Put plainly: Slide in situ hybridization, effect of DMSO (Example 1), WBC cells, Y probe. It is filed as cell-based, human. The settings on record: assay solution HC + 10% DMSO.
Excerpt: as §15
WBC cells (white blood cells) were obtained from a healthy human.
as §1, §2, §3, §4, §5, §16

In the next series the test system is Hepg2 cells. Put plainly: Slide in situ hybridization, effect of DMSO (Example 1), Hepg2 cells, Y probe. It is filed as cell-based, human. The settings on record: assay solution HC + 10% DMSO.
Series [2] relates to Human female white blood cells (karyotype XX). Put plainly: Signal enhancers in the mounting solution after in situ hybridization (Example 6), HXR probes, fluorescent microscope. It is filed as cell-based. The note with it: one volume compound plus 9 volumes mounting solution; rhodamine HXR probes; water control = 1. Here is the method: After the in situ hybridization step, the cells were washed and then modified mounting solution was added and cells were observed under the microscope for fluorescence signal. Modified mounting solution was 9 volumes of mounting solution and one volume of additional compound, which was the compound being tested for its ability to be a signal enhancer. Mounting solution consisted of 0.1% 1,4 diphenylamine (antifade) in 50% glycerol (v/v), and nuclear stain Hoechst (#33258; 1 ug/ml).
Human female white blood cells (karyotype XX) were hybridized at 85° C. for 15 minutes with female chromosome HXR probes labelled with a rhodamine fluor. Cells were washed with wash buffers #1 and #2, and then suspended in a modified mounting solution. The additional compound in the modified mounting solution was varied; as a control, water was used as the additional compound. The signal intensity was observed under the fluorescent microscope.

For series [3] the test system is unchanged. The description is as above. It is filed as cell-based. The note with it: not further described.
In a further series the test system is α-satellite DNA. Kind of series: Liquid in situ hybridization with flow cytometry, DMSO plus squalane plus additional compound (Example 5), α-satellite DNA and NR probes. It is filed as cell-based.
Excerpt: as §6, §7, §8, §9, §10, §11, §12, §13
The Liquid In Situ Cell Preparation and Hybridization Protocol was followed.
The "α-satellite" DNA probe is a target specific probe specific α-satellite DNA. Fluorescence obtained with it represents the sum of fluorescence from target-bound probe, non-specifically bound probe and autofluorescence from cellular molecules.
The effect of a combination of DMSO and squalane on the probe signal was measured as was that combination further enhanced with a third compound.
In this Example, in all but two cases, the hybridization cocktail consisted of 9 volumes of HC-DMSO, a half volume of squalane, and a half volume of an additional compound. In one case, the additional compound was replaced by water, so that the hybridization compound consisted of 9 volumes of HC-DMSO, a half volume of squalane, and a half volume of water. In the control sample, the cocktail consisted of nine volumes of HC-DMSO and one volume of water. As a result, in all samples, there was 9 percent DMSO (v/v). When present, squalane was present at 5 percent. When present, the additional compound was present at 5%.
The ratio, α-SAT/NR, is the ratio of the mean LFL1 for the α-satellite DNA probe ([…]) to the mean LFL1 for the NR probe.

Series [4] can be described thus: Precipitation of additional compound from the hybridization cocktail (Example 4). It is filed as physicochemical. The settings on record: 10 percent in hybridization cocktail (HC-DMSO).
Excerpt: as §14

Where [5] appears, read: 10% additional compound with 9% DMSO.

Excerpt for Hepg2 cells: Hepg2 cells were a human cell line (American Type Culture Collection number, ATCC-HB8065).
In this Example, the slide in situ cell preparation and hybridization protocol was followed.

`C[S+](C)[O-]` [DMSO, dimethyl sulfoxide]: the “Cells giving hybridization signal” value in the series on Hepg 2 cells (DMSO included in in situ assay solution, cells not specified (opening statement of Example 2)) is reported as “over 95%”. Also, in the series on Hela cells (DMSO alone, nine percent), the “Optimal DMSO concentration for signal brightness” value is recorded as “at or close to the optimal DMSO concentration for signal brightness”. The “Fluorescent Signal intensity (Scale of 1 to 4)” value (in the series on Amniotic cells; in [1]; with Hepg2 cells) was 4 throughout.
Regarding `CCCCCCCCCCCCO` [dodecyl alcohol], the “Signal Intensity Scale of 1 to 4” value in series [2] is reported as 4. Moreover, the “Fluorescent signal (Scale of 1 to 4)” value in the series with Hepg 2 cells amounted to 2. In addition, in the series on Hela cells (setting [5]), the “28S RNA Probe, mean LFL1” value is listed as 4.804 and the “NR Probe, mean LFL1” value stood at 0.142. For the same compound, the “Ratio 28S RNA/NR (ratio of mean LFL1)” value in the series with Hela cells (10% additional compound with 9% DMSO, water control 44) was found to be 34. The “Effect on signal in an earlier experiment” value in series [3] is on record as “decrease in signal”.
Take `CC(C)CCCC(C)CCCC(C)CCCCC(C)CCCC(C)CCCC(C)C` (stereo not drawn) [squalane]: in series [2], the “Signal Intensity Scale of 1 to 4” value was 3. Moreover, the “NR Probe, mean LFL1” value with α-satellite DNA (5% squalane with 9% DMSO, water instead of additional compound, DMSO-only control 0.175) is given as 0.125. For the same compound, in the series on α-satellite DNA (5% squalane with 9% DMSO, water instead of additional compound, DMSO-only control 3.829), the “α-SAT Probe, mean LFL1” value is recorded as 4.604. Further, the “Ratio α-SAT/NR (ratio of mean LFL1)” value in the series on α-satellite DNA (5% squalane with 9% DMSO, water instead of additional compound, DMSO-only control 22) stood at 37. Moreover, the “Increase of DNA probe signal intensity compared to DMSO alone” value in the series on α-satellite DNA (squalane plus DMSO) was 1.68 fold. Further, the Precipitation from solution entry in series [4] is recorded as “precipitation from solution”. In the series with Hepg 2 cells, the “Fluorescent signal (Scale of 1 to 4)” value was found to be 2. For the same compound, in the series with Hela cells (setting [5]), the “28S RNA Probe, mean LFL1” value came out at 0.611 and the “NR Probe, mean LFL1” value amounted to 0.123. Further, the “Signal intensity after precipitation (biphasic mixture)” value in the series with Hela cells (10 percent compound with 9% DMSO) was “markedly decreased”.

The values above are taken from US5521061A, “Enhancement of probe signal in nucleic acid-mediated in-situ hybridization studies” (Aprogenex, Inc., priority 1992, dated 1996).
